Laboratory results published in PMC5463993, “Identification of an Efflux Transporter LmrB Regulating Stress Response and Extracellular Polysaccharide Synthesis in Streptococcus mutans” (Frontiers in Microbiology, 2017).

Molecular target: T1, LmrB (Streptococcus mutans, UniProt Q8DUY5)
T1 construct: full-length (454 aa) with His-tag from pET28a, expressed in E. coli BL21 (DE3) cells; tested in whole cells
Test: fluorometric efflux assay in E. coli BL21 (DE3) expressing LmrB versus empty vector
Format: cell-based
Conditions: EtBr-loaded whole cells in PBS; CCCP (100 uM) as control blocker

T1 sequence (Q8DUY5 entry or part of it): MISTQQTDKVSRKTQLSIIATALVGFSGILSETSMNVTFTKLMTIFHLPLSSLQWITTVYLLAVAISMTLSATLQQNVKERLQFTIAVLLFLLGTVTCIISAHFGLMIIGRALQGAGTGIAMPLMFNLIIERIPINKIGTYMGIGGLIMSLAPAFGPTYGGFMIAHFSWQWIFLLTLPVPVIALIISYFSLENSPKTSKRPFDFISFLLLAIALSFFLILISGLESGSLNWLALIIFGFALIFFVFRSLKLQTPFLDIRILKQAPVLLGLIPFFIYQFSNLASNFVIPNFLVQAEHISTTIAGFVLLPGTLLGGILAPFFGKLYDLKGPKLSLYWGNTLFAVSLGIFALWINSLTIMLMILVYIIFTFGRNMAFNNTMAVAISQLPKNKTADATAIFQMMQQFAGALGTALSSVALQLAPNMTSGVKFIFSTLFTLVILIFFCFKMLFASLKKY

CC[n+]1c(-c2ccccc2)c2cc(N)ccc2c2ccc(N)cc21 [Ethidium bromide]
fluorometric efflux assay in E. coli BL21 (DE3) expressing LmrB versus empty vec: the efflux activity of E. coli was higher for the bacterial culture harboring cloned pET28a-lmrB
